Assays:
[1] = tested on: CuZnSOD, MnSOD, Catalase, Glutathione peroxidase, NADPH oxidase; test: Real-time RT-PCR of oxidative stress genes (anti-oxidant enzymes, NADPH oxidase) in liver of cirrhotic animals; type: in vivo, Wistar rats; settings: compound B 7 mg/kg, compound C 14 mg/kg, ACM 320 mg/kg
Protocol: Sample tissues of rat livers were measured about 0.5×0.5 cm in area. Each of tissue was homogenized in 1 mL of TRIzol buffer (Invitrogen, Carlsbad, Calif., USA) with a motorized pestle, and then mixed with 0.5 mL chloroform/isoamyl alcohol (24:1), and was centrifuged at 12,000×g for 10 min at 4° C. The supernatant was transferred to a fresh tube, and isopropanol was added, mix well and stored at −80° C. overnight. The reaction mixture was centrifuged at 12,000×g for 30 min at 4° C. to produce a rude RNA pallet, the pellet was washed with 70% ethanol and air-dried. The concentrations of total RNA were measured by absorbance at 260 nm using a NanoDrop ND-1000 (NanoDrop, USA). Reverse transcription reaction was performed using a commercially available set of High Capacity RNA-to-cDNA Kit (Applied Biosystems, USA). cDNA was prepared from 2 μg of total RNA per 20 μl reaction, according to the manufacturer's instructions—37° C. for 60 minutes, 95° C. for 5 minutes, and hold at 4° C. The resulting cDNA was to a final concentration of 100 ng/μl and constituted a matrix in further experiments. Amplification and detection the gene expression by real-time PCR were performed using StepOne plus Real-time PCR System (Applied Biosystems, USA). Samples were assayed in a 10 μl reaction mixture containing 2 μl of template DNA, 5 μl of 2× TaqMan PCR Master Mix (Applied Biosystems, Life Technologies, Foster City, Calif., USA), 0.5 μl of 20× assay mix containing probe, forward and reverse primer (Applied Biosystems, Life Technologies, Foster City, Calif., USA), whereby qPCR targets with the following information were used: (a) Rat α-SMA, Assay ID Rn01759928_g1, (b) Rat TIMP, Assay ID Rn00587558_m1, (c) Rat TGF-β1, Assay ID Rn00572010_m1, (d) Rat Collagen I, Assay ID Rn 01463838_m1, (e) Rat CuZnSOD, Assay ID Rn00566938_m1, (f) Rat MnSOD, Assay ID Rn00690587_g1, (g) Rat Catalase, Assay ID Rn00560930_m1, (h) Rat Glutathione peroxidase, Assay ID Rn00577994_g1, (i) Rat NADPH oxidase, Assay ID Rn00585380_m1 and (j) Rat GAPDH, Assay ID Rn1462662_g1. To control variation in mRNA concentration, all results were normalized to the housekeeping gene, GAPDH. Relative quantitation was performed using the comparative ΔΔCt method according to the manufacture's instructions. The cycling conditions used were as follows: 50° C. for 2 min, 95° C. for 10 min followed by 40 cycles of 95° C. for 15 s and 60° C. for 1 min each.

collagen I and III = test: Collagen I and collagen III quantification (ELISA) in rabbit ear scar; type: in vivo, New Zealand white rabbits
Protocol: The rabbit ear model of hypertrophic scarring was established. In brief, 12 New Zealand white rabbits, weighing 2.5 to 3.0 kg, were prepared for wounding under sterile conditions. Four 1 cm full thickness circular wounds were created down to the cartilage on the ventral side of each ear using a 1 cm punch biopsy. The perichondrial membrane was then dissected off the cartilage using a surgical blade. The test agents including compound B, C and ACM ethanol extract were applied to the wounds of the experimental group ([…] to each wound) every day in concentrations of 1% w/v for 14 days, while the control group received equal amounts of 1% w/v saline.
The quantification of collagen I and III used an ELISA Kit (R & D Systems Inc., Minneapolis, Minn., USA) according to the operation manual.

`CC(C)=CCOc1ccc(C2=C(CC(C)C)C(=O)N(O)C2=O)cc1` [Compound C, 3-isobutyl-4-[4-(3-methyl-2-butenyloxy)phenyl]-1H-pyrrol-1-ol-2,5-dione] was tested, and the “Catalase gene expression in liver” value [1] was “up-regulated significantly”, the “CuZnSOD gene expression in liver” value [1] was “up-regulated significantly” and the “Glutathione peroxidase gene expression in liver” value [1] was “up-regulated significantly”. For the same compound, the “MnSOD gene expression in liver” value [1] was “up-regulated significantly”, the “NADPH oxidase gene expression in liver” value [1] was “down-regulated significantly” and the “collagen III density” value (collagen I and III; day 7, 1% w/v topical) was “insignificantly decreased”. The “collagen I density” value (collagen I and III; day 14, 1% w/v topical) was “significantly decreased” and the “collagen III density” value (collagen I and III; day 14, 1% w/v topical) was “significantly reduced”.

`CC(C)=CCOc1ccc(C2=C(CC(C)C)C(=O)NC2=O)cc1` [Compound B, 3-isobutyl-4-[4-(3-methyl-2-butenyloxy)phenyl]-1H-pyrrol-2,5-dione] was tested, and the “Catalase gene expression in liver” value [1] was “up-regulated significantly”, the “CuZnSOD gene expression in liver” value [1] was “up-regulated significantly” and the “Glutathione peroxidase gene expression in liver” value [1] was “up-regulated significantly”. For the same compound, the “MnSOD gene expression in liver” value [1] was “up-regulated significantly”, the “NADPH oxidase gene expression in liver” value [1] was “down-regulated significantly” and the “collagen III density” value (collagen I and III; day 7, 1% w/v topical) was “insignificantly decreased”. For the same compound, the “collagen I density” value (collagen I and III; day 14, 1% w/v topical) was “significantly decreased” and the “collagen III density” value (collagen I and III; day 14, 1% w/v topical) was “significantly reduced”.

— patent US9572760B2, “Uses of compounds and mixtures from Antrodia cinnamomea mycelia” (Simpson Biotech Co., Ltd., priority 2013, dated 2017)
